Patent US20030166601A1, “Novel colloid synthetic vectors for gene therapy” (priority 1999, published 2003)

Tested on: CD-1 mice
Experiment: Luciferase expression in organs after intravenous injection of pCILuc complexes
Assay type: in vivo
Conditions: for Luciferase RLU/20 μl lysate heart / Luciferase RLU/20 μl lysate kidney / Luciferase RLU/20 μl lysate liver / Luciferase RLU/20 μl lysate lung / Luciferase RLU/20 μl lysate spleen: 40 μg pCILuc i.v., 5 h; for Luciferase activity heart / Luciferase activity kidney / Luciferase activity liver / Luciferase activity lung / Luciferase activity spleen: Table 5
Protocol: Substituted aminoethanols (cationic compounds) were prepared as described in Examples 1-34. Their gene delivery ability was studied in vivo by intravenous injection (Table 1 and 2) using a standard method. The preparations were administered via tail vein injection to mice and gene expression determined after 5 hours. Female CD-1 mice, 13-15 g, were purchased from Charles River Inc. Forty microgram of pCILuc complexed with GC lipids or GC lipid:Chol dispersion as indicated weight ratios. After 5 h, mice were sacrificed and organs were collected. Organs were homogenized in 0.5 ml of lysis buffer and 20 μl of supernatant was used for luciferase assay. Luciferase activity was represented as a mean of relative light unit (RLU) of four mice. The lipids were either used alone or combined with cholesterol and complexed with a luciferase reporter gene plasmid by a standard procedure at a range of weight and charge ratios. For the in vivo screen, 40 μg of pCILuc was complexed with the formulation and injected into the mice.
All compounds were evaluated for in vivo activity. Two critical factors were examined, formulation with or without cholesterol and the ratio of cationic lipid to DNA. Cholesterol was tested at 1:1 mole ratio of lipid:chol. The studies were performed with a dose of 40 μg of pCILuc complexed with cationic lipid or lipid: Chol (1:1 mole ratio) injected i.v. into CD-1 mice and then luciferase activity in different organs determined 5 h later. The first evaluation included all of 14 GC-lipids at weight ratios of 2 and 10 (GC lipid to DNA). It was performed by four separated experiments. Each time cationic liposome DOTAP:Chol was used as a standard control.
Measurements were repeated with lipids GC-030, GC-034 and GC-029 at wider weight ratios than the first experiment. Luciferase activity is represented as a mean of relative light unit (RLU) of four mice. WR means weight ratio of GC lipids to DNA. The transfection activity was represented by luciferase activity RLU/organ. […] The transfection activity increased with the increased weight ratio (GC lipids to DNA). Inclusion of cholesterol can change the biodistribution of gene expression in the different organs examined. […] However this function of cholesterol was not seen with GC-034.

SMILES | Luciferase RLU/20 μl lysate heart (WR 2) [RLU/20 μl lysate] | Luciferase activity heart (WR 2) | Luciferase RLU/20 μl lysate kidney (WR 2) [RLU/20 μl lysate] | Luciferase activity kidney (WR 2) | Luciferase RLU/20 μl lysate liver (WR 2) [RLU/20 μl lysate] | Luciferase activity liver (WR 2) | Luciferase RLU/20 μl lysate lung (WR 2) [RLU/20 μl lysate] | Luciferase activity lung (WR 2) | Luciferase activity spleen (WR 2, spleen) | Luciferase RLU/20 μl lysate heart (WR 10) [RLU/20 μl lysate] | Luciferase activity heart (WR 10) | Luciferase RLU/20 μl lysate kidney (WR 10) [RLU/20 μl lysate] | Luciferase activity kidney (WR 10) | Luciferase RLU/20 μl lysate liver (WR 10) | Luciferase activity liver (WR 10) | Luciferase RLU/20 μl lysate lung (WR 10) | Luciferase activity lung (WR 10) | Luciferase RLU/20 μl lysate spleen (WR 10, spleen) | Luciferase activity spleen (WR 10, spleen) | Luciferase RLU/20 μl lysate spleen (WR (lipid to DNA) 2, spleen) | also measured
CCCCCCCCCCCCCCCCCC(CCCCCCCCCCCCCCCCC)OC(=O)NCCNC(=O)[C@H](CCCNCCCN)NCCCN.O=C(O)C(F)(F)F.O=C(O)C(F)(F)F.O=C(O)C(F)(F)F.O=C(O)C(F)(F)F [GC-029] | 42 | 933 RLU/organ | 34 | 1,000 RLU/organ | 31 | 825 RLU/organ | 41 | 967 RLU/organ | 908 RLU/organ | 34 | 858 RLU/organ | 42 | 808 RLU/organ | 65 RLU/20 μl lysate | 1,408 RLU/organ | 72 RLU/20 μl lysate | 1,017 RLU/organ | 196 RLU/20 μl lysate | 1,992 RLU/organ | 31 RLU/20 μl lysate | –
CCCCCCCCCCCCCCCCCC(CCCCCCCCCCCCCCCCC)OC(=O)NCCNC(=O)[C@@H](N)CCCN.O=C(O)C(F)(F)F.O=C(O)C(F)(F)F [GC-030] | 48 | 1,367 RLU/organ | 51 | 1,458 RLU/organ | 70 | 3,417 RLU/organ | 88 | 1,600 RLU/organ | 73,442 RLU/organ | 67 | 3,450 RLU/organ | 105 | 1,367 RLU/organ | 1,093 RLU/20 μl lysate | 114,425 RLU/organ | 1,396 RLU/20 μl lysate | 35,117 RLU/organ | 5,305 RLU/20 μl lysate | 446,650 RLU/organ | 3,692 RLU/20 μl lysate | Luciferase activity heart (WR 1): 1,675 RLU/organ; Luciferase activity kidney (WR 1): 1,392 RLU/organ; Luciferase activity liver (WR 1): 3,642 RLU/organ; Luciferase activity lung (WR 1): 3,308 RLU/organ; Luciferase activity spleen (WR 1, spleen): 23,308 RLU/organ; Luciferase activity heart (WR 6): 817 RLU/organ; Luciferase activity kidney (WR 6): 792 RLU/organ; Luciferase activity liver (WR 6): 1,550 RLU/organ; Luciferase activity lung (WR 6): 8,808 RLU/organ; Luciferase activity spleen (WR 6, spleen): 38,058 RLU/organ; Luciferase activity heart (WR 20): 4,783 RLU/organ; Luciferase activity kidney (WR 20): 17,583 RLU/organ; Luciferase activity liver (WR 20): 1,003,125 RLU/organ; Luciferase activity lung (WR 20): 689,475 RLU/organ; Luciferase activity spleen (WR 20, spleen): 2,479,217 RLU/organ; luciferase activity in spleen relative to DOTAP:Chol standard (weight ratio 20, spleen): 36 fold
CCCCCCCCCCCCCCCCCCN(CCCCCCCCCCCCCCCCCC)C(=O)CC[C@H](NC(=O)[C@H](CCCNCCCN)NCCCN)C(=O)O.O=C(O)C(F)(F)F.O=C(O)C(F)(F)F.O=C(O)C(F)(F)F.O=C(O)C(F)(F)F [GC-033] | 31 | – | 27 | – | 29 | – | 36 | – | – | 40 | – | 41 | – | 46 RLU/20 μl lysate | – | 42 RLU/20 μl lysate | – | 50 RLU/20 μl lysate | – | 27 RLU/20 μl lysate | –
CCCCCCCCCCCCCCCCCCN(CCCCCCCCCCCCCCCCCC)C(=O)CNC(=O)[C@@H](N)CCCN.O=C(O)C(F)(F)F.O=C(O)C(F)(F)F [GC-035] | 54 | – | 46 | – | 57 | – | 57 | – | – | 51 | – | 54 | – | 50 RLU/20 μl lysate | – | 54 RLU/20 μl lysate | – | 54 RLU/20 μl lysate | – | 70 RLU/20 μl lysate | –
CCCCCCCCCCCCCCCCCC(CCCCCCCCCCCCCCCCC)NC(=O)CNC(=O)CNC(=O)[C@H](CCCNCCCN)NCCCN.O=C(O)C(F)(F)F.O=C(O)C(F)(F)F.O=C(O)C(F)(F)F.O=C(O)C(F)(F)F [GC-038] | 101 | – | 60 | – | 59 | – | 142 | – | – | 57 | – | 58 | – | 93 RLU/20 μl lysate | – | 63 RLU/20 μl lysate | – | 160 RLU/20 μl lysate | – | 61 RLU/20 μl lysate | –
CCCCCCCCCCCCCCCCCC(CCCCCCCCCCCCCCCCC)NC(=O)CNC(=O)CNC(=O)[C@@H](N)CCCN.O=C(O)C(F)(F)F.O=C(O)C(F)(F)F [GC-039] | 50 | – | 45 | – | 48 | – | 52 | – | – | 45 | – | 54 | – | 212 RLU/20 μl lysate | – | 753 RLU/20 μl lysate | – | 845 RLU/20 μl lysate | – | 288 RLU/20 μl lysate | –
